From patent US20090099094A1, “Use of Somatostatin Agonists to Treat Medullary Thyroid Carcinoma” (priority 2007, published 2009)

How the values were obtained:
SSTR2 = SSTR2 (Homo sapiens, UniProt P30874); test: SSTR receptor binding affinity (Ki), SSTR2; details: read-out: SSTR Specificity Ki SSTR2
[1] = tested on: medullary thyroid carcinoma primary cultures; test: Cell viability of MTC primary cultures (MTT); type: cell-based, human; details: 10^−8 M, forty-eight hours
Description: Primary cultured cells from 18 selected MTC samples were incubated in ninety six well plates for forty eight hours with each SSTR agonist at 10^−8 M. Control cells were treated with vehicle solution. Cell viability was measured by a colorimetric method among eight replicates from treated and untreated (control) primary cultured cells. […] Data are expressed as the mean±SE percent cell viability reduction vs. untreated control cells. *P<0.05, and **P<0.01 vs. control.
(§1) Tissue samples were surgically removed in accordance with the guidelines of the local comnmittees on human research. Thyroid tissue samples were obtained under sterile conditions and immediately minced in RPMI 1640 tissue culture medium. Tissues were incubated with 0.25% trypsin overnight at 4° C. and then dissociated using 0.35% collagenase (Sigma, Milano, ITALY) and 1% trypsin at 37° C. for sixty minutes. Cell suspensions were filtered through double layers of gaus(e and washed twice with serum-free F-12 Ham's Nutrient Modified Medium (F-12; Euroclone Ltd, Wetherby, UNITED KINGDOM). Tumor cells were re-suspended in F-12 with 10% fetal bovine serum and antibiotics, seeded in ninety-six well culture plates (˜2×10^4 cells/well) and incubated at 37° C. in a humidified atmosphere of 5% CO2 and 95% air according to known procedures (Zatelli, M. C. et al., Endocrinology, 2005, 146:2692-8). Approximately twenty-four hours later, the prepared cells were treated with the selected somatostatin agonist and were monitored for hormone secretion and overall viability. Informed consent of the patients was obtained for disclosing clinical investigation and performing the in vitro study.
The effects of the tested somatostatin analogs on medullary thyroid carcinoma primary culture cell viability were assessed with a Cell Proliferation Kit I MTT® (Roche Diagnostics GmbH, Mannheim, GERMANY) which employs a colorimetric method for determining the number of viable cells in proliferation assays. Primary cultured cells were plated in ninety-six multiwell plates (2×10^4 cells/well) and incubated for forty-eight hours in a medium supplemented with 10% fetal bovine serum in the presence or absence of each somatostatin analog at 10^−8M. Treatments were renewed after the first twenty-four hours of incubation.
In order to investigate the effects of somatostatin analogs on medullary thyroid carcinoma cell viability, an MTT assay was performed in primary cultures derived from the eighteen selected medullary thyroid carcinoma samples, treated with or without each somatostatin analog at […] for forty-eight hours. Percent cell viability reduction compared to a control in each primary culture under treatment with each somatostatin analog is reported in Table 6.

SSTR1 = SSTR1 (Homo sapiens, UniProt P30872); test: SSTR receptor binding affinity (Ki), SSTR1; details: read-out: SSTR Specificity Ki SSTR1
[2] = tested on: medullary thyroid carcinoma primary cultures; test: Calcitonin secretion by MTC primary cultures (IRMA); type: cell-based, human; details: 10^−8 M, six hours
Description: Primary cultured cells from 18 selected MTC samples were incubated in ninety six well plates for six hours with each SSTR agonist at 10^−8 M. Control cells were treated with vehicle solution. Calcitonin levels in the conditioned medium were measured by immunoradiometric assay (IRMA) among eight replicates in the conditioned medium from treated and untreated (control) primary cultured cells. […] Data are expressed as the mean±SE percent hormone secretion inhibition vs. untreated control cells. *P<0.05 and **P<0.01 vs. control.
as §1
Calcitonin levels were measured in a conditioned medium from treated and untreated primary cultured cells with the calcitonin-U.S.-IRMA® kit (Biosource Europe, Nivelles, BELGIUM) after a six hour treatment with […] of the selected somatostatin analogs. The intra- and inter-assay variation coefficients were 1.9-2.7% and 1.9-3.3%, respectively. The detection limit was 0.8 pg/ml. Hormone assays were performed in duplicate of conditioned medium from treated cells. Results were obtained by determining the mean value among eight replicates.
In order to investigate the effects of somatostatin analogs on hormone secretion, calcitonin and CgA levels were measured in conditioned media collected from primary cultures derived from the selected eighteen medullary thyroid carcinoma treated with or without each somatostatin analog at 10^−8M for six hours.
According to this criterion, […] as “responders” (group A: primary cultures #3, #5, #6, #7, #11, #12, #13, #14, #15, #16) and nine as “non responders” (group B: primary cultures #1, #2, #4, #8, #9, #10, #17, #18).

SSTR3 = SSTR3 (Homo sapiens, UniProt P32745); test: SSTR receptor binding affinity (Ki), SSTR3; details: read-out: SSTR Specificity Ki SSTR3
SSTR5 = SSTR5 (Homo sapiens, UniProt P35346); test: SSTR receptor binding affinity (Ki), SSTR5; details: read-out: SSTR Specificity Ki SSTR5
[3] = MTC primary culture #1 (non responder)
[4] = MTC primary culture #2 (non responder)
[5] = MTC primary culture #3 (responder)
[6] = MTC primary culture #4 (non responder)
[7] = MTC primary culture #5 (responder)
[8] = MTC primary culture #6 (responder)
[9] = MTC primary culture #7 (responder)
[10] = MTC primary culture #8 (non responder)
[11] = MTC primary culture #9 (non responder)
[12] = MTC primary culture #10 (non responder)
[13] = MTC primary culture #11 (responder)
[14] = MTC primary culture #12 (responder)
[15] = MTC primary culture #13 (responder)
[16] = MTC primary culture #14 (responder)
[17] = MTC primary culture #15 (responder)
[18] = MTC primary culture #16 (responder)
[19] = MTC primary culture #17 (non responder)
[20] = MTC primary culture #18 (non responder)
[21] = group B (lanreotide non-responsive) mean

Chain of SSTR5 (P35346 whole entry): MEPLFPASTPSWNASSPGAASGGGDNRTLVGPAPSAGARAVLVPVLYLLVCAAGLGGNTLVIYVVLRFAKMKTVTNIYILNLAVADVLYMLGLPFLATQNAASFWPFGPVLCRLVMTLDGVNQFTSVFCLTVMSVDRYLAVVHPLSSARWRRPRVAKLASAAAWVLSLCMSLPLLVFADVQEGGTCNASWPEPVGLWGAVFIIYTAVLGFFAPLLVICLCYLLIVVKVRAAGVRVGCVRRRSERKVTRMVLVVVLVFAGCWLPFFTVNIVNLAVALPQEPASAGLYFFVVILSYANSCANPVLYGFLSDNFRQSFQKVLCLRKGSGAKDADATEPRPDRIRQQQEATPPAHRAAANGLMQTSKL
Chain of SSTR2 (P30874 whole entry): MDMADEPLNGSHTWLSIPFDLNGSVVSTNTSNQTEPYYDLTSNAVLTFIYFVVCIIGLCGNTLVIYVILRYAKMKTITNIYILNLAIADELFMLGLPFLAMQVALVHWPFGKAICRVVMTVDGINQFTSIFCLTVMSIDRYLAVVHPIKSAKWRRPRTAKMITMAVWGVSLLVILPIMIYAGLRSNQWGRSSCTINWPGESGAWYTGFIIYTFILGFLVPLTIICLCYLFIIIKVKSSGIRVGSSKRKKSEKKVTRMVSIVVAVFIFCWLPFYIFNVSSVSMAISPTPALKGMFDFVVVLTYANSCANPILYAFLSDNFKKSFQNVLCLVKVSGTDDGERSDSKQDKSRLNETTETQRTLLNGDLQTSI
Chain of SSTR3 (P32745 whole entry): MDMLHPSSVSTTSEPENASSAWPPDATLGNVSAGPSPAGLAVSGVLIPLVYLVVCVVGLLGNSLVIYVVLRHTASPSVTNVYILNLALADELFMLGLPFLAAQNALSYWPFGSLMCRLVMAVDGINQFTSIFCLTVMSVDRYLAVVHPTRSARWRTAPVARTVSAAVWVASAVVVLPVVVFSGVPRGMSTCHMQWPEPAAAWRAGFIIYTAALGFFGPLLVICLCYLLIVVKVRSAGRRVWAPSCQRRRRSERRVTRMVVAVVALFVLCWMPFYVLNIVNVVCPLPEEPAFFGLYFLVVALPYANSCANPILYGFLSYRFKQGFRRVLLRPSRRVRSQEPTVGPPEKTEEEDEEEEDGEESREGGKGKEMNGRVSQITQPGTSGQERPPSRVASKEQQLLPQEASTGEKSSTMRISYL
Chain of SSTR1 (P30872 whole entry): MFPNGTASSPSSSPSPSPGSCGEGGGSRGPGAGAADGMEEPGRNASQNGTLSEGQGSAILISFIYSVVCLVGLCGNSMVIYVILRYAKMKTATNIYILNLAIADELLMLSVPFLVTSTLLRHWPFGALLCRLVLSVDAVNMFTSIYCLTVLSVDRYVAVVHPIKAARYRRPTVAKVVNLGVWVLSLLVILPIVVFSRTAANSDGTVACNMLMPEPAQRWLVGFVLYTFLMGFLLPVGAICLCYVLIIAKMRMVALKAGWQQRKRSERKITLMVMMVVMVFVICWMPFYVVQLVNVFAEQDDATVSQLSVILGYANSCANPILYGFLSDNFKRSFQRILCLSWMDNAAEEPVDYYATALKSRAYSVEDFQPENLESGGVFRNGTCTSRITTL

With C[C@@H](O)[C@H](NC(=O)[C@H](Cc1ccccc1)NC(=O)[C@@H](NC(=O)[C@H](CCCCN)NC(=O)[C@@H](Cc1c[nH]c2ccccc12)NC(=O)[C@H](Cc1c[nH]c2ccccc12)NC(=O)[C@H](Cc1ccccc1)NC(=O)[C@H](N)Cc1ccccc1)[C@@H](C)O)C(N)=O [Cmpd #3, D-Phe-Phe-Trp-D-Trp-Lys-Thr-Phe-Thr-NH2] the Ki (SSTR2) was 0.166 µM, the “% cell viability reduction vs. control” value [1, 3] was 30.8% and the “% cell viability reduction vs. control” value [1, 4] was −72.5%. The “% cell viability reduction vs. control” value [1, 5] was 0.4%, the “% cell viability reduction vs. control” value [1, 6] was 4.8% and the “% cell viability reduction vs. control” value [1, 7] was −5.3%. The “% cell viability reduction vs. control” value [1, 8] was 2.4%, the “% cell viability reduction vs. control” value [1, 9] was 4.2% and the “% cell viability reduction vs. control” value [1, 10] was −0.3%. The “% cell viability reduction vs. control” value [1, 11] was 3.6%, the “% cell viability reduction vs. control” value [1, 12] was 2.3% and the “% cell viability reduction vs. control” value [1, 13] was −1.0%. The “% cell viability reduction vs. control” value [1, 14] was −11.3%, the “% cell viability reduction vs. control” value [1, 15] was 7.2% and the “% cell viability reduction vs. control” value [1, 16] was 6.0%. For the same compound, the “% cell viability reduction vs. control” value [1, 17] was 5.2%, the “% cell viability reduction vs. control” value [1, 18] was −5.8% and the “% cell viability reduction vs. control” value [1, 19] was −8.7%. The “% cell viability reduction vs. control” value [1, 20] was −3.8%, the “cell viability, change vs. control (signed, negative = reduced)” value [1, 21] was “neither affected” and the Ki (SSTR1) was 1.15 µM. The “% CT secretion inhibition vs. control” value [2, 3] was −16.6%, the “% CT secretion inhibition vs. control” value [2, 4] was 18.2% and the “% CT secretion inhibition vs. control” value [2, 5] was −36.5%. The “% CT secretion inhibition vs. control” value [2, 6] was 5.3%, the “% CT secretion inhibition vs. control” value [2, 7] was −17.5% and the “% CT secretion inhibition vs. control” value [2, 8] was −25.8%. The “% CT secretion inhibition vs. control” value [2, 9] was −34.6%, the “% CT secretion inhibition vs. control” value [2, 10] was −7.5% and the “% CT secretion inhibition vs. control” value [2, 11] was −1.6%. The “% CT secretion inhibition vs. control” value [2, 12] was 15.6%, the “% CT secretion inhibition vs. control” value [2, 13] was −76.2% and the “% CT secretion inhibition vs. control” value [2, 14] was −9.3%. For the same compound, the “% CT secretion inhibition vs. control” value [2, 15] was −43.2%, the “% CT secretion inhibition vs. control” value [2, 16] was 9.5% and the “% CT secretion inhibition vs. control” value [2, 17] was 7.8%. For the same compound, the “% CT secretion inhibition vs. control” value [2, 18] was −17.4%, the “% CT secretion inhibition vs. control” value [2, 19] was 7.4% and the “% CT secretion inhibition vs. control” value [2, 20] was 13.6%. The “calcitonin secretion reduced / inhibited by” value ([2]; group A (lanreotide responders) mean) was 28%, the “calcitonin secretion, change vs. control (signed, negative = reduced)” value ([2]; group A (lanreotide responsive) mean) was −28% and the “calcitonin secretion, change vs. control (signed, negative = reduced)” value [2, 21] was “not reduced”. It also gave a Ki (SSTR3) of 1 µM and a Ki (SSTR5) of 0.0024 µM.
